Data on twelve compounds can be found in patent US20260258038A1 (priority 2023, published 2026).

In the first assay the test system is Phytophthora infestans. The assay is described as follows: whole plant or invertebrate. Type of assay: in vivo. The note with it: in Solanum lycopersicum, foliar, read-out: control of Phytophthora infestans (percent disease control compared to untreated).
On to `COC(=O)Nc1ccc(-c2cnc3c(C)cc(N(C)C(=O)c4cnc(F)c(C)c4)cn23)cn1` [Compound 43, methyl N-[5-[6-[(6-fluoro-5-methyl-pyridine-3-carbonyl)-methyl-amino]-8-methyl-imidazo[1,2-a]pyridin-3-yl]-2-pyridyl]carbamate], for which the pest or weed control at 200 ppm is ≥ 80%.
Same read-out and setting: the same measure for `COC(=O)Nc1ccc(-c2cnc3c(C)cc(N(C)C(=O)c4cccc(OC)n4)cn23)cn1` [Compound 37, methyl N-[5-[6-[(6-methoxypyridine-2-carbonyl)-methyl-amino]-8-methyl-imidazo[1,2-a]pyridin-3-yl]-2-pyridyl]carbamate]: ≥ 80%.
Same read-out and setting: the same measure for `COC(=O)Nc1ccc(-c2cnc3c(C)cc(N(C)C(=O)c4ccc(C#N)nc4)cn23)cn1` [Compound 51, methyl N-[5-[6-[(6-cyanopyridine-3-carbonyl)-methyl-amino]-8-methyl-imidazo[1,2-a]pyridin-3-yl]-2-pyridyl]carbamate]: ≥ 80%; for `COC(=O)Nc1ccc(-c2cnc3c(C)cc(N(C)C(=O)c4cccnc4SC)cn23)cn1` [Compound 46, methyl N-[5-[8-methyl-6-[methyl-(2-methylsulfanylpyridine-3-carbonyl)amino]imidazo[1,2-a]pyridin-3-yl]-2-pyridyl]carbamate]: ≥ 80%; for `COC(=O)Nc1ccc(-c2cnc3c(C)cc(N(C)C(=O)c4ccccc4C(=O)OC)cn23)cn1` [Compound 40]: ≥ 80%.

A further assay deals with Pythium ultimum. The assay is described as follows: Pythium ultimum / liquid culture (seedling damping off). Type of assay: cell-based. To be noted: Globisporangium ultimum, liquid culture in PDB, 24° C., 2-3 days after application, read-out: control of Pythium ultimum (inhibition of growth, photometric). On the procedure:
Pythium ultimum/Liquid Culture (Seedling Damping Off)
Mycelia fragments and oospores of a newly grown liquid culture of the fungus are directly mixed into nutrient broth (PDB potato dextrose broth). After placing a (DMSO) solution of test compound into a microtiter plate (96-well format), the nutrient broth containing the fungal mycelia/spore mixture is added. The test plates are incubated at 24° C. and the inhibition of growth is determined photometrically 2-3 days after application.
Regarding `COC(=O)Nc1ccc(-c2cnc3c(C)cc(N(C)C(=O)c4cnc(F)c(C)c4)cn23)cn1` [Compound 43, methyl N-[5-[6-[(6-fluoro-5-methyl-pyridine-3-carbonyl)-methyl-amino]-8-methyl-imidazo[1,2-a]pyridin-3-yl]-2-pyridyl]carbamate], the inhibition at 20 ppm was ≥ 80%.
Regarding `COC(=O)Nc1ccc(-c2cnc3ccc(N(C)C(=O)c4ccc(C#N)c(F)c4)cn23)cn1` [Compound 15, methyl N-[5-[6-[(4-cyano-3-fluoro-benzoyl)-methyl-amino]imidazo[1,2-a]pyridin-3-yl]-2-pyridyl]carbamate], the inhibition at 20 ppm is ≥ 80%.
Regarding `COC(=O)Nc1ccc(-c2cnc3c(C)cc(N(C)C(=O)c4ccc(C#N)c(F)c4)cn23)cn1` [Compound 4, methyl N-[5-[6-[(4-cyano-3-fluoro-benzoyl)-methyl-amino]-8-methyl-imidazo[1,2-a]pyridin-3-yl]-2-pyridyl]carbamate], the inhibition at 20 ppm is ≥ 80%.
`COC(=O)Nc1ccc(-c2cnc3ccc(N(CC#N)C(=O)c4ccc(F)c(OC)c4)cn23)cn1` [Compound 7, methyl N-[5-[6-[cyanomethyl-(4-fluoro-3-methoxy-benzoyl)amino]imidazo[1,2-a]pyridin-3-yl]-2-pyridyl]carbamate]: the inhibition at 20 ppm was ≥ 80%.
Turning to `COCCN(C(=O)c1ccc(F)c(OC)c1)c1ccc2ncc(-c3ccc(NC(=O)OC)nc3)n2c1` [Compound 14, methyl N-[5-[6-[(4-fluoro-3-methoxy-benzoyl)-(2-methoxyethyl)amino]imidazo[1,2-a]pyridin-3-yl]-2-pyridyl]carbamate], the inhibition at 20 ppm is ≥ 80%.
On the same count and under the same terms, the same measure for `COC(=O)Nc1ccc(-c2cnc3ccc(N(C)C(=O)c4ccc(C#N)c(C)c4)cn23)cn1` [Compound 17, methyl N-[5-[6-[(4-cyano-3-methyl-benzoyl)-methyl-amino]imidazo[1,2-a]pyridin-3-yl]-2-pyridyl]carbamate]: ≥ 80%; for `COC(=O)Nc1ccc(-c2cnc3ccc(N(CC#N)C(=O)c4ccc(F)cc4)cn23)cn1` [Compound 6, methyl N-[5-[6-[cyanomethyl-(4-fluorobenzoyl)amino]imidazo[1,2-a]pyridin-3-yl]-2-pyridyl]carbamate]: ≥ 80%.
For `COC(=O)Nc1ccc(-c2cnc3c(C)cc(N(C)C(=O)c4ccc(C#N)c(C)c4)cn23)cn1` [Compound 2, methyl N-[5-[6-[(4-cyano-3-methyl-benzoyl)-methyl-amino]-8-methyl-imidazo[1,2-a]pyridin-3-yl]-2-pyridyl]carbamate], the inhibition at 20 ppm was ≥ 80%.
